Data from patent US20250090699A1, “FAP TARGETING CYCLIC PEPTIDES AND CONJUGATES THEREOF” (Novartis AG, priority 2023, published 2025).
Starred links: 1 amine or outer side, 2 acyl side, 3 side chain; linkers in the order of their positions; H or OH if unused. Non-standard residues stand in square brackets, D forms with d. Residues, ends and D or L forms follow the SMILES beside them. Groups on a side chain read outwards from the residue. *: point of attachment. Nicotinoyl(6-NMe3+) = C[N+](C)(C)c1ccc(C(=O)*)cn1; Phe(4-CH2NH2) = NCc1ccc(C[C@H](N)C(=O)O)cc1; Piperazinyl(4-CH2COOH) = O=C(O)CN1CCN(*)CC1; NMeF = CN[C@@H](Cc1ccccc1)C(=O)O; Aoc(2) = CCCCCC[C@H](N)C(=O)O; AEEA = NCCOCCOCC(=O)O; CO = O=C([*:1])[*:2]

Experiments:
human FAP [1] = molecular target: T1, human FAP (Homo sapiens, UniProt Q12884); assay: Surface plasmon resonance (SPR) for peptide affinity, human FAP; type: binding; conditions: read-out: h. FAP, SPR, KD
T1 construct: the biotinylated His, Avi tag, human FAP (26-760, FAP-H82Q6); His; Avi tag (biotinylated); purchased AcroBiosystems FAP-H82Q6
T1 sequence (Q12884 26-760): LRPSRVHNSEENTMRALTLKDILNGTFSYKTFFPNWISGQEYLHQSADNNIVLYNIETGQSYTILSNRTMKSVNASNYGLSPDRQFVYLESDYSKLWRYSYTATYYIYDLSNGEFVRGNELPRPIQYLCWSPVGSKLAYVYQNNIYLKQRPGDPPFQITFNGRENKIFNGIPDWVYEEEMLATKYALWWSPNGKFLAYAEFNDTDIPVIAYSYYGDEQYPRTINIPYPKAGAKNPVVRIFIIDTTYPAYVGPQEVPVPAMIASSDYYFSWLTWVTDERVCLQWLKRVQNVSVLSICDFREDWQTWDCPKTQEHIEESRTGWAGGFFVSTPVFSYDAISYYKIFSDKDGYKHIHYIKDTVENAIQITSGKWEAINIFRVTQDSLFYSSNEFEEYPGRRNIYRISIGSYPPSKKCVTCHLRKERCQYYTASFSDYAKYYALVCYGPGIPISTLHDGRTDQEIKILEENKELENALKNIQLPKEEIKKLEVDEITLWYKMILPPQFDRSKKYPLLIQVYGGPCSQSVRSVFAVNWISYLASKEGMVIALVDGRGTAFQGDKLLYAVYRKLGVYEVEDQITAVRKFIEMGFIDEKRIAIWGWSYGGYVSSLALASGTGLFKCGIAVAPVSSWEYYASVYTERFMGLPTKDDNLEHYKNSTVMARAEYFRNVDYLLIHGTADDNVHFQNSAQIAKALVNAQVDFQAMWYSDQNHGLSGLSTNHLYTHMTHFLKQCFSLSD
Method in brief: (§1)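 Biotinylated His/Avi-tagged FAP ectodomains (human 26-760, mouse 26-761) captured or immobilized on Biacore sensor chips; peptides run at 25 °C in HBS-EP+ pH 7.6 with 2% DMSO, single-cycle kinetics, 8 concentrations. KD from 1:1 binding-model fit of sensorgrams.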

mouse FAP [2] = molecular target: T2, mouse FAP (Mus musculus, UniProt P97321); assay: Surface plasmon resonance (SPR) for peptide affinity, mouse FAP; type: binding
T2 construct: biotinylated His, Avi tag, mouse FAP (26-761, FAP-M82Q5); His; Avi tag (biotinylated); purchased AcroBiosystems FAP-M82Q5
T2 sequence (P97321 26-761): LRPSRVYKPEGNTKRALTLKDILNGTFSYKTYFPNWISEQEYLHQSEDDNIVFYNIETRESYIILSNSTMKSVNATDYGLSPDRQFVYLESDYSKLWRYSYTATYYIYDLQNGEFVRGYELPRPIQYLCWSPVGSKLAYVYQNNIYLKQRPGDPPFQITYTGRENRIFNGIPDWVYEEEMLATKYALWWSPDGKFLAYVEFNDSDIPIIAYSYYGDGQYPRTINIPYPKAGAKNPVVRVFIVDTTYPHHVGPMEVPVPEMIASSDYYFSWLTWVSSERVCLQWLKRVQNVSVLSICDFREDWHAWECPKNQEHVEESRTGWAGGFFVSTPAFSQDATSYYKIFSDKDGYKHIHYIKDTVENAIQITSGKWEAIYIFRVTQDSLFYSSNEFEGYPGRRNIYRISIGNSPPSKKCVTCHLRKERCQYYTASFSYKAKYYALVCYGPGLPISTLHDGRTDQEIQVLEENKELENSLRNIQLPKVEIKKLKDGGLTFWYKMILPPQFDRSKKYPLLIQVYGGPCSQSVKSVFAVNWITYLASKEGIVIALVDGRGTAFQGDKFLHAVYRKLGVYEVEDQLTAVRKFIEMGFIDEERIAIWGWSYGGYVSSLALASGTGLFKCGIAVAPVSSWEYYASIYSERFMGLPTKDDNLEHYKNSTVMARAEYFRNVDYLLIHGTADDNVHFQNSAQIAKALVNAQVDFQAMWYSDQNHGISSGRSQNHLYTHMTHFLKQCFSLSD
Method in brief: as §1

human FAP [3] = molecular target: T1, human FAP; assay: Enzymatic FAP competition assay (Z-Gly-Pro-AMC fluorescence), human FAP; type: biochemical; conditions: read-out: h. FAP, Enz., IC50
Method in brief: (§2)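 Biotinylated His/Avi-tagged FAP ectodomain (human 26-760, mouse 26-761) at 0.01 nM, preincubated 24 h with peptides (14 concentrations, up to 1 μM) in pH 7.5 phosphate, 150 mM NaCl, 0.05% Tween20, 1% DMSO. Then 50 μM Z-Gly-Pro-AMC, 4 h at 22-24° C; AMC fluorescence (380/460 nm) gave IC50 from duplicate points.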

mouse FAP [4] = molecular target: T2, mouse FAP; assay: Enzymatic FAP competition assay (Z-Gly-Pro-AMC fluorescence), mouse FAP; type: biochemical; conditions: read-out: m. FAP, Enz., IC50
Method in brief: as §2

CCCCCC[C@@H]1NC(=O)[C@H](Cc2ccc(CNC(=O)COCCOCCNC(=O)c3ccc([N+](C)(C)C)nc3)cc2)NC(=O)[C@H](Cc2ccccc2)N(C)C(=O)CNC(=O)CNC(=O)[C@H]2CCCN2C(=O)[C@H](CC(=O)O)NC(=O)[C@H](CCCCNC(=O)N2CCN(CC(=O)O)CC2)NC(=O)CNC(=O)[C@H](Cc2c[nH]c3ccccc23)NC1=O [Example C57, Gly-Gly-NMePhe-F(4amPEG2NHCOPy3(4(NMe3)))-Aoc-Trp-Gly-K(COpipzaa)-Asp-D-Pro] (cyclo([Aoc(2)]WGK([CO-Piperazinyl(4-CH2COOH)])D[dP]GG[NMeF][Phe(4-CH2NH2)]([AEEA-Nicotinoyl(6-NMe3+)])))
Kd (human FAP [1]): < 0.013 nM | Kd (mouse FAP [2]): < 0.014 nM | IC50 (human FAP [3]): 0.006 nM | IC50 (mouse FAP [4]): 0.016 nM
